From US8680146B2, “Organic compounds” (Novartis AG, priority 2008, dated 2014)

Experiment: Solubility study of FTY720 salts in various solvents
Assay type: physicochemical
Conditions: approx. values at 25° C.
Method: The solubilities of various salts were assessed and are given in the table below (approx. values at 25° C., g/100 ml %): […]

| Solubility in 0.1N HCl | Solubility in Acetone | Solubility in Ethanol | Solubility in Ethylacetate | Solubility in Isopropanol | Solubility in Octanol | Solubility in Water | Solubility in pH 6.88 phosphate buffer | Compound |
| --- | --- | --- | --- | --- | --- | --- | --- | --- |
| >2 g/100 ml % | 0.52 g/100 ml % | 3.88 g/100 ml % | 0.45 g/100 ml % | 2.03 g/100 ml % | 1-2 g/100 ml % | 0.018 g/100 ml % | <0.001 g/100 ml % | CCCCCCCCc1ccc(CCC(N)(CO)CO)cc1 [Free Base, 2-amino-2-[2-(4-octylphenyl)ethyl]propane-1,3-diol] |
| >2 g/100 ml % | 0.08 g/100 ml % | >7.94 g/100 ml % | 0.03 g/100 ml % | 4.51 g/100 ml % | 1-2 g/100 ml % | >10 g/100 ml % | <0.001 g/100 ml % | CCCCCCCCc1ccc(CCC(N)(CO)CO)cc1.Cl [Hydrochloride, 2-amino-2-[2-(4-octylphenyl)ethyl]propane-1,3-diol hydrochloride salt] |
